Assays:
[1] = test system: chymotrypsin-like sites (β5) of proteasome in MM cells; test: PROTEASOMEGLO assay of proteasome inhibition in MM cells; format: cell-based; conditions: washout
Procedure: (§1) Proteasome inhibition in MM cells was measured with luminogenic substrates using PROTEASOMEGLO assay (Promega). […] An aliquot of culture was pelleted and medium was removed and replaced with PBS. The resulting cell suspension was mixed with luminogenic substrates in the manufacturer-provided lysis/assay buffer. After 3 minutes mixing on an orbital shaker, the plate was incubated in the dark for additional 17 minutes, followed by the measurements of the luminescence, performed in triplicate for each substrate/data point. Data were analyzed as for purified proteasomes. […] Cells (1×10^6 per well of a 6-well plate) were incubated with the inhibitors for 4 hours at 37° C. and this was followed by a 2 hour incubation with 5 μM BODIPY-TMR-epoxomicin. Subsequently, the medium was removed and the cells were washed with PBS and harvested. […] The supernatant was collected and the protein concentration was determined by the Bradford assay, and used to normalize gel loading. The samples were analysed by SDS-PAGE and fluorescent densitometry as described for competition experiment in cell lysates. IC50 values were calculated from three independent experiments using […] PRISM software.

[2] = test system: T1, chymotrypsin-like sites (β5) of proteasome in MM cells; test: as above; format: cell-based; conditions: for Inhibition of chymotrypsin-like sites, 6 h −NC-022: washout
T1 construct: other: NCI-H929; bortezomib 100 nM 1 h; bortezomib 11 nM 1 h; bortezomib 3.7 nM 1 h; bortezomib 33 nM 1 h; other: NCI-H9
Procedure: as §1

[3] = target: T2, trypsin-like sites (β2) of proteasome in MM cells (Homo sapiens, UniProt Q99436); test: as above; format: cell-based; conditions: for Inhibition of trypsin-like sites, 6 h +NC-022 / Inhibition of trypsin-like sites, 6 h −NC-022: washout
T2 construct: endogenous in cells; host or cells: NCI-H929, RPMI-8226 and other MM cell lines
T2 sequence (Q99436 44-277): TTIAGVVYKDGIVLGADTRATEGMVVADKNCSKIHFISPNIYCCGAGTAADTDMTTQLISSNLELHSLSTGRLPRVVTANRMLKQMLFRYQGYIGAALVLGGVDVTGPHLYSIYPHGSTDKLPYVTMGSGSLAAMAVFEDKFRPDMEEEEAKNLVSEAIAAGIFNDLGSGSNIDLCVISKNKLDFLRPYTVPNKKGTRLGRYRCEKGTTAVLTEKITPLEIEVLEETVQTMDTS
Procedure: as §1

KMS-12-BM cells = test: ALAMAR BLUE cell viability assay; format: cell-based; conditions: viability at 48 h
Procedure: (§2) RPMI-8226 and NCI-H929 cells were cultured in RPMI-1640 supplemented with 10% fetal bovine serum, penicillin, streptomycin, and plasmocin in 5% CO2 humidified incubator. HEK-293T cells were cultured in DMEM containing 10% fetal calf serum, 10 units/mL penicillin, and 10 μg/mL streptomycin in a 7% CO2 humidified incubator. Viability of multiple myeloma cells was measured with ALAMAR BLUE mitochondrial dye conversion assay. Viability of peripheral blood mononuclear cells (PBMNCs) was measured using CELL TITER-GLO luminescent cell viability assay (Promega), which is based on quantification of ATP present in the cells. Caspase-3/7 activity was measured using APO-ONE 3/7 homogeneous assay (Promega).

NCI-H929 cells = test: ALAMAR BLUE cell viability assay; format: cell-based; conditions: NCI-H929, viability at 48 h
Procedure: as §2

chymotrypsin-like sites = conditions: patients treated with carfilzomib; cited from earlier work
[4] = KMS-12-BM, carfilzomib 11 nM 1 h
[5] = KMS-12-BM, carfilzomib 33 nM 1 h
[6] = KMS-12-BM, carfilzomib 100 nM 1 h
[7] = KMS-12-BM, carfilzomib 300 nM 1 h
[8] = KMS-12-BM, carfilzomib 900 nM 1 h
[9] = NCI-H929, carfilzomib 3.7 nM 1 h
[10] = NCI-H929, carfilzomib 11 nM 1 h
[11] = NCI-H929, carfilzomib 33 nM 1 h

## CC(C)C[C@H](NC(=O)[C@H](CCc1ccccc1)NC(=O)CN1CCOCC1)C(=O)N[C@@H](Cc1ccccc1)C(=O)N[C@@H](CC(C)C)C(=O)[C@@]1(C)CO1 [Carfilzomib]
[1]; [4]
  Inhibition of chymotrypsin-like sites, 6 h +NC-022: 63 ± 13 % control
[1]; [5]
  Inhibition of chymotrypsin-like sites, 6 h +NC-022: 84 ± 6 % control
[1]; [6]
  Inhibition of chymotrypsin-like sites, 6 h +NC-022: 90 ± 3 % control
[1]; [7]
  Inhibition of chymotrypsin-like sites, 6 h +NC-022: 95 ± 4 % control
[1]; [8]
  Inhibition of chymotrypsin-like sites, 6 h +NC-022: 99 ± 4 % control
[1]; [9]
  Inhibition of chymotrypsin-like sites, 6 h +NC-022: 41 ± 29 % control
[1]; [10]
  Inhibition of chymotrypsin-like sites, 6 h +NC-022: 52 ± 32 % control
[1]; [11]
  Inhibition of chymotrypsin-like sites, 6 h +NC-022: 71 ± 23 % control
[2]; [4]
  Inhibition of chymotrypsin-like sites, 1 h: 75 ± 6 % control
  Inhibition of chymotrypsin-like sites, 6 h −NC-022: 67 ± 17 % control
[2]; [5]
  Inhibition of chymotrypsin-like sites, 1 h: 90 ± 3 % control
  Inhibition of chymotrypsin-like sites, 6 h −NC-022: 97 ± 1 % control
[2]; [6]
  Inhibition of chymotrypsin-like sites, 1 h: 95 ± 3 % control
  Inhibition of chymotrypsin-like sites, 6 h −NC-022: 97 ± 1 % control
[2]; [7]
  Inhibition of chymotrypsin-like sites, 1 h: 97 ± 3 % control
  Inhibition of chymotrypsin-like sites, 6 h −NC-022: 97 ± 1 % control
[2]; [8]
  Inhibition of chymotrypsin-like sites, 1 h: 98 ± 3 % control
  Inhibition of chymotrypsin-like sites, 6 h −NC-022: 97 ± 0 % control
[2]; [9]
  Inhibition of chymotrypsin-like sites, 1 h: 14 ± 43 % control
  Inhibition of chymotrypsin-like sites, 6 h −NC-022: 65.5 % control
[2]; [10]
  Inhibition of chymotrypsin-like sites, 1 h: 39 ± 35 % control
  Inhibition of chymotrypsin-like sites, 6 h −NC-022: 89 ± 11 % control
[2]; [11]
  Inhibition of chymotrypsin-like sites, 1 h: 75 ± 17 % control
  Inhibition of chymotrypsin-like sites, 6 h −NC-022: 95 ± 7 % control
[3]; [4]
  Inhibition of trypsin-like sites, 1 h: −3 ± 10 % control
  Inhibition of trypsin-like sites, 6 h +NC-022: 91 ± 2 % control
  Inhibition of trypsin-like sites, 6 h −NC-022: 5 ± 25 % control
[3]; [5]
  Inhibition of trypsin-like sites, 1 h: 0 ± 11 % control
  Inhibition of trypsin-like sites, 6 h +NC-022: 91 ± 2 % control
  Inhibition of trypsin-like sites, 6 h −NC-022: 45 ± 4 % control
[3]; [6]
  Inhibition of trypsin-like sites, 1 h: 18 ± 8 % control
  Inhibition of trypsin-like sites, 6 h +NC-022: 94 ± 2 % control
  Inhibition of trypsin-like sites, 6 h −NC-022: 62 ± 2 % control
[3]; [7]
  Inhibition of trypsin-like sites, 1 h: 49 ± 18 % control
  Inhibition of trypsin-like sites, 6 h +NC-022: 93 ± 2 % control
  Inhibition of trypsin-like sites, 6 h −NC-022: 69 ± 2 % control
[3]; [8]
  Inhibition of trypsin-like sites, 1 h: 75 ± 14 % control
  Inhibition of trypsin-like sites, 6 h +NC-022: 94 ± 3 % control
  Inhibition of trypsin-like sites, 6 h −NC-022: 72 ± 2 % control
[3]; [9]
  Inhibition of trypsin-like sites, 1 h: −7 ± 18 % control
  Inhibition of trypsin-like sites, 6 h +NC-022: 93 ± 3 % control
  Inhibition of trypsin-like sites, 6 h −NC-022: 3 % control
[3]; [10]
  Inhibition of trypsin-like sites, 1 h: 0 ± 14 % control
  Inhibition of trypsin-like sites, 6 h +NC-022: 93 ± 2 % control
  Inhibition of trypsin-like sites, 6 h −NC-022: 39 ± 36 % control
[3]; [11]
  Inhibition of trypsin-like sites, 1 h: 17 ± 8 % control
  Inhibition of trypsin-like sites, 6 h +NC-022: 94 ± 3 % control
  Inhibition of trypsin-like sites, 6 h −NC-022: 46 ± 24 % control
KMS-12-BM cells; carfilzomib 11 nM 1 h
  Viability +NC-022: 69 ± 2 % control
  Viability −NC-022: 95 ± 3 % control
KMS-12-BM cells; carfilzomib 33 nM 1 h
  Viability +NC-022: 40 ± 3 % control
  Viability −NC-022: 91 ± 3 % control
KMS-12-BM cells; carfilzomib 100 nM 1 h
  Viability +NC-022: 27 ± 5 % control
  Viability −NC-022: 83.5 ± 3 % control
KMS-12-BM cells; carfilzomib 300 nM 1 h
  Viability +NC-022: 15 ± 1 % control
  Viability −NC-022: 71 ± 2 % control
KMS-12-BM cells; carfilzomib 900 nM 1 h
  Viability +NC-022: 9 ± 1 % control
  Viability −NC-022: 41 ± 7 % control
NCI-H929 cells; carfilzomib 3.7 nM 1 h
  Viability +NC-022: 36 ± 15 % control
  Viability −NC-022: 99 ± 9 % control
NCI-H929 cells; carfilzomib 11 nM 1 h
  Viability +NC-022: 14 ± 8 % control
  Viability −NC-022: 78 ± 15 % control
NCI-H929 cells; carfilzomib 33 nM 1 h
  Viability +NC-022: 4 ± 2 % control
  Viability −NC-022: 30 ± 11 % control
chymotrypsin-like sites
  inhibition of the chymotrypsin-like sites in patients: ~90%
